{
  "source": "paper PMC11546692",
  "about": "(International Journal of Molecular Sciences, 2024)",
  "key": {"Skp2": {"system": "Skp2", "experiment": "Skp2 immunohistochemical staining of xenografted tumors", "assay_type": "in vivo, Scid mice"}, "[1]": {"system": "pancreatic cancer (PC) cells", "experiment": "MTT proliferation of human and murine pancreatic cancer cells (overall statements, combinations)", "assay_type": "cell-based", "conditions": "MiaPaCa-2, PANC-1, TB33117, KPCWT942"}, "[2]": {"system": "MiaPaCa-2 human pancreatic cancer cells xenograft", "experiment": "Subcutaneous MiaPaCa-2 xenograft tumor growth in Scid mice", "assay_type": "in vivo"}, "PANC-1 cells [3]": {"system": "PANC-1 cells", "conditions": "PANC-1, 48 h, MTT"}, "MiaPaCa-2 cells [4]": {"system": "MiaPaCa-2 cells", "experiment": "Cell death by propidium iodide flow cytometry", "assay_type": "cell-based, human", "conditions": "MiaPaCa-2, 0.05 μM, 48 h", "procedure": "(§1) ATO inhibited PC cell growth by stimulation of apoptosis. The effects of PhAs-LHP on cell cycle and cell death were determined by flow cytometry analysis. In MiaPaCa-2 cells, after 48 h treatment, ATO induced about 15% cell death at 0.5 μM while PhAs-LHP (0.05 μM) caused 24% cell death at ten times lower concentrations than ATO (Figure 4A). Likewise, after 24 h treatment, ATO (2 μM) and PhAs-LHP (0.2 μM) induced cell cycle arrest at the G2/M phase in PANC-1 cells (Figure 4B).\nFigure 4 PhAs-LHP induced cell death and cell cycle arrest more potently than ATO. MiaPaCa-2 cells were treated with ATO (0.5 μM) or PhAs-LHP (0.05 μM) for 48 h (A). PANC-1 cells were treated with ATO (2 μM) or PhAs-LHP (0.2 μM) for 24 h (B). Both MiaPaCa-2 and PANC-1 cells were then stained with propidium iodide (PI) and subjected to flow cytometry analysis. Numbers indicate the percent of PI-negative cells of a total of 10,000 cells analyzed per condition (A). […]\nCell death and cell cycle were assayed using propidium iodide (PI) and flow cytometry. […] Samples were processed with the FACSymphony A3 flow cytometer (BD Biosciences), and the acquired data were analyzed with the FlowJo software (BD Biosciences, San Jose, CA, USA)."}, "TB33117 cells": {"system": "TB33117 cells", "conditions": "TB33117, 48 h, MTT"}, "[5]": {"conditions": "in vivo"}, "[6]": {"system": "normal pancreatic epithelial cell line (HPDE)", "assay_type": "cell-based"}, "[7]": {"conditions": "mouse, in vivo"}, "PANC-1 cells [8]": {"system": "PANC-1 cells", "experiment": "Cell cycle by propidium iodide flow cytometry", "assay_type": "cell-based, human", "conditions": "PANC-1, 0.2 μM, 24 h", "procedure": "as §1\nFigure 4 PhAs-LHP induced cell death and cell cycle arrest more potently than ATO. MiaPaCa-2 cells were treated with ATO (0.5 μM) or PhAs-LHP (0.05 μM) for 48 h (A). PANC-1 cells were treated with ATO (2 μM) or PhAs-LHP (0.2 μM) for 24 h (B). Both MiaPaCa-2 and PANC-1 cells were then stained with propidium iodide (PI) and subjected to flow cytometry analysis. Numbers indicate the percent of PI-negative cells of a total of 10,000 cells analyzed per condition (A). TEXT PRINTED IN THE PICTURE: (A) ATO: % PI Negative 85.4 (0.5 μM) | (A) PhAs-LHP: % PI Negative 75.9 (0.05 μM) | (B) ATO: %G1 28.9 (2 μM); %S 16.7 (2 μM); %G2 48.9 (2 μM) | (B) PhAs-LHP: %G1 39.3 (0.2 μM); %S 19.8 (0.2 μM); %G2 38.6 (0.2 μM)\nCell death and cell cycle were assayed using propidium iodide (PI) and flow cytometry. Cells were treated with ATO or PhAs-LHP with the concentrations indicated in the text for 48 h for measuring cell death or 24 h for determining cell cycle arrest. All floating and adhering cells were then trypsinized and washed two times with cold phosphate-buffered saline (PBS). For cell death assays, cells were harvested and resuspended in PBS containing 1 μg/mL PI. For cell cycle analysis, cells were harvested and resuspended in PBS containing 0.1% Triton X-100, 50 μg/mL PI, and 10 μg/mL RNaseA (Thermo Scientific, Melbourne, Australia) and then incubated at 37 °C for 15 min. Samples were processed with the FACSymphony A3 flow cytometer (BD Biosciences), and the acquired data were analyzed with the FlowJo software (BD Biosciences, San Jose, CA, USA)."}, "MiaPaCa-2 cells [9]": {"system": "MiaPaCa-2 cells", "conditions": "MiaPaCa-2, 48 h, MTT"}, "[10]": {"conditions": "read-out: IC50 inhibition of PC cell proliferation"}},
  "data": [
    {"compound": "Nc1ccn([C@@H]2O[C@H](CO)[C@@H](O)C2(F)F)c(=O)n1", "note": "[Gem, gemcitabine, reference compound]", "values": [
      {"measurement": "levels of Skp2 in tumors", "setting": "Skp2; 50 mg/kg i.p., vs non-treatment control, IHC", "result": "reduced"},
      {"measurement": "effect of pre-treatment on inhibition of PC cell growth by ATO", "setting": "[1]; 24 h pre-incubation with Gem, then 48 h ATO", "result": "enhanced the inhibitory effects of ATO"},
      {"measurement": "PC growth (tumor volume, tumor weight)", "setting": "[2]; 50 mg/kg i.p. every 4 days, alone, vs control", "result": "significantly decreased PC growth"}
    ]},
    {"compound": "Cc1nc(Nc2[nH]nc3c2CN(C(=O)N[C@H](CN(C)C)c2ccccc2)C3(C)C)c2sccc2n1", "note": "[PF-3758309]", "values": [
      {"measurement": "effect of pre-treatment on inhibition of PC cell growth by ATO", "setting": "[1]; 24 h pre-incubation with PF-3758309, then 48 h ATO", "result": "enhanced the inhibitory effects of ATO"}
    ]},
    {"compound": "CC(=O)N[C@H]1CS[As](c2ccccc2)SC[C@@H](C(N)=O)NC(=O)[C@H](CCCNC(=N)N)NC(=O)[C@H](CCCNC(=N)N)NC(=O)[C@H](CC(C)C)NC(=O)[C@H](CCCNC(=N)N)NC(=O)[C@H](Cc2c[nH]cn2)NC(=O)[C@H](Cc2ccc(O)cc2)NC(=O)[C@H](C)NC1=O", "note": "(some centres unmarked) [PhAs-LHP]", "values": [
      {"measurement": "levels of Skp2 in tumors, combination with gemcitabine", "setting": "Skp2; mouse, in vivo", "result": "did not further reduce the expression of Skp2"},
      {"measurement": "levels of Skp2 in tumors", "setting": "Skp2; mouse, in vivo, ip", "result": "reduced"},
      {"measurement": "IC50", "setting": "PANC-1 cells [3]; [10]", "result": "210 ± 30", "unit": "nM"},
      {"measurement": "cell death", "setting": "MiaPaCa-2 cells [4]", "result": 24, "unit": "%"},
      {"measurement": "% PI Negative", "setting": "MiaPaCa-2 cells [4]; of 10,000 cells", "result": 75.9, "unit": "%"},
      {"measurement": "IC50", "setting": "TB33117 cells; [10]", "result": "200 ± 50", "unit": "nM"},
      {"measurement": "toxicity (mouse body weight)", "setting": "[5]", "result": "No toxicity was observed"},
      {"measurement": "further reduction in tumor volumes and weight on top of Gem", "setting": "[2]; mouse, in vivo", "result": "further decreased tumor volumes"},
      {"measurement": "relative tumor growth (Day 7 volume = 100%)", "setting": "[2]; mouse, in vivo", "result": "significantly slower than of Gem plus PAO"},
      {"measurement": "pancreatic tumor growth (tumor volume, tumor weight)", "setting": "[2]; mouse, in vivo, ip", "result": "significantly suppressed pancreatic tumor growth"},
      {"measurement": "reduction of proliferation of HPDE", "setting": "[6]", "result": 10, "unit": "%"},
      {"measurement": "arsenic (As) in brain, heart, liver and kidney", "setting": "[7]", "result": "not detected"},
      {"measurement": "%G1", "setting": "PANC-1 cells [8]", "result": 39.3, "unit": "%"},
      {"measurement": "%G2", "setting": "PANC-1 cells [8]", "result": 38.6, "unit": "%"},
      {"measurement": "%S", "setting": "PANC-1 cells [8]", "result": 19.8, "unit": "%"},
      {"measurement": "IC50", "setting": "MiaPaCa-2 cells [9]; [10]", "result": "120 ± 100", "unit": "nM"}
    ]},
    {"compound": "CAYHRLRRC [LHP, reference compound]", "values": [
      {"measurement": "effect on cell proliferation", "setting": "PANC-1 cells [3]", "result": "did not affect the proliferation"},
      {"measurement": "effect on cell proliferation", "setting": "TB33117 cells", "result": "did not affect the proliferation"},
      {"measurement": "effect on cell proliferation", "setting": "MiaPaCa-2 cells [9]", "result": "did not affect the proliferation"}
    ]}
  ]
}
